In patent US20120277368A1, “AQUEOUS DISPERSION PRESSURE-SENSITIVE ADHESIVE COMPOSITION AND PRESSURE-SENSITIVE ADHESIVE SHEET” (NITTO DENKO CORPORATION, priority 2011, published 2012):

Assay: Solubility in water (25° C.) of crosslinking agent
Type: physicochemical
Description: Furthermore, the compound (B) is a water-soluble compound. […] (parts by weight of the compound capable of being dissolved per 100 parts by weight of water) is 1 g or more (1 g/100 g or more), preferably 10 g or more (10 g/100 g or more), and more preferably 30 g or more (30 g/100 g or more). The solubility of the compound (B) in water can be measured, for example, as follows.
Water (25° C.) and a compound (B), having the same weight, are mixed by using a stirrer under the conditions of a rotation speed of 300 rpm and 10 minutes, and the mixture is separated into an aqueous phase and an oil phase by centrifugation. The aqueous phase is then collected and dried at 120° C. for 1 hour, and the nonvolatile content (parts by weight of the nonvolatile component per 100 parts by weight of water) in the aqueous phase is determined from the weight loss on drying.

## C1OC1CN(CC1CO1)CC1CO1 (stereo not shown) [N,N,N-tri(2,3-epoxypropyl)amine]
  solubility in water (25° C.): 100 g/100 g
